According to PubChem BioAssay AID248 (DTP/NCI, 2004):
Toxic doses and inconclusive results are not listed. No stated cut-off is given here; in the data, active means T/C of 150% or more; inactive means T/C below 125%. Square brackets hold non-standard residues; d marks the D form. Peptide text beside a SMILES is read from it. ξ: configuration not given here. ξV = CC(C)C(N)C(=O)O

Tested on: L1210 leukemia ip in BDF1 mice, survival T/C
Assay: NCI In Vivo Anticancer Drug Screen. Data for tumor model L1210 Leukemia (intraperitoneal) in B6D2F1 (BDF1) mice
Settings: endpoint: mean survival time, higher = longer survival
Procedure, shortened: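 Transplantable tumor model; survival measured in treated vs vehicle control mice. Value = treated/control.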

[1] = dose: 25.0 mg/kg/injection, schedule: Q04DX003 (ip), vehicle: Klucel (hydroxypropylcellulose) (HPC)
[2] = dose: 50.0 mg/kg/injection, schedule: Q04DX003 (ip), vehicle: Klucel (hydroxypropylcellulose) (HPC)
[3] = dose: 100.0 mg/kg/injection, schedule: Q04DX003 (ip), vehicle: Klucel (hydroxypropylcellulose) (HPC)
[4] = dose: 100.0 mg/kg/injection, schedule: Q01DX009 (ip), vehicle: saline with Tween-80
[5] = dose: 100.0 mg/kg/injection, schedule: Q04DX003 (ip), vehicle: saline with Tween-80
[6] = dose: 200.0 mg/kg/injection, schedule: Q01DX009 (ip), vehicle: saline with Tween-80
[7] = dose: 200.0 mg/kg/injection, schedule: Q04DX003 (ip), vehicle: saline with Tween-80
[8] = dose: 400.0 mg/kg/injection, schedule: Q01DX009 (ip), vehicle: saline with Tween-80
[9] = dose: 400.0 mg/kg/injection, schedule: Q04DX003 (ip), vehicle: saline with Tween-80
[10] = dose: 100.0 mg/kg/injection, schedule: Q01DX009 (ip), vehicle: Klucel (hydroxypropylcellulose) (HPC)
[11] = dose: 200.0 mg/kg/injection, schedule: Q04DX003 (ip), vehicle: Klucel (hydroxypropylcellulose) (HPC)
[12] = dose: 400.0 mg/kg/injection, schedule: Q04DX003 (ip), vehicle: Klucel (hydroxypropylcellulose) (HPC)
[13] = dose: 100.0 mg/kg/injection, schedule: Q04DX002 (ip), vehicle: Klucel (hydroxypropylcellulose) (HPC)
[14] = dose: 200.0 mg/kg/injection, schedule: Q01DX009 (ip), vehicle: Klucel (hydroxypropylcellulose) (HPC)
[15] = dose: 100.0 mg/kg/injection, schedule: Q04DX003 (ip), vehicle: saline
[16] = dose: 100.0 mg/kg/injection, schedule: Q01DX009 (ip), vehicle: saline
[17] = dose: 200.0 mg/kg/injection, schedule: Q01DX009 (ip), vehicle: saline
[18] = dose: 200.0 mg/kg/injection, schedule: Q04DX003 (ip), vehicle: saline
[19] = dose: 400.0 mg/kg/injection, schedule: Q01DX009 (ip), vehicle: saline
[20] = dose: 400.0 mg/kg/injection, schedule: Q04DX003 (ip), vehicle: saline

Measured: T/C

O=S(=O)(F)c1cccc2nsnc12
inactive: [1] 95 % of control | [2] 101 % of control | [3] 87 % of control | dose: 100.0 mg/kg/injection, schedule: Q04DX003 (ip), vehicle: carboxymethylcellulose (CMC) 93 % of control | dose: 400.0 mg/kg/injection, schedule: Q04DX003 (ip), vehicle: carboxymethylcellulose (CMC) 104 % of control

CC1=C2CC(C)(C)/C=C\C(=O)/C(C)=C\C3=C[C@H](C)C[C@]3(O2)C1=O
inactive: dose: 11.0 mg/kg/injection, schedule: Q01DX009 (ip), vehicle: saline 112 % of control | dose: 16.0 mg/kg/injection, schedule: Q01DX009 (ip), vehicle: saline 106 % of control | dose: 24.0 mg/kg/injection, schedule: Q01DX009 (ip), vehicle: saline 116 % of control

CC1=Nc2onc(C)c2N=C(C)C1
inactive: [4] 109 % of control | [5] 100 % of control | [6] 94 % of control | [7] 93 % of control | [8] 96 % of control | [9] 95 % of control

CCOC(=O)/C(=C\c1ccccc1)P(=O)(OCC)c1ccccc1 (centres undefined)
inactive: dose: 25.0 mg/kg/injection, schedule: Q01DX009 (ip), vehicle: Klucel (hydroxypropylcellulose) (HPC) 91 % of control | dose: 50.0 mg/kg/injection, schedule: Q01DX009 (ip), vehicle: Klucel (hydroxypropylcellulose) (HPC) 92 % of control | [10] 96 % of control | [3] 95 % of control | [11] 96 % of control

O=[N+]([O-])c1cccc(C=Nc2ccccc2)c1
inactive: [3] 112 % of control | [11] 96 % of control | [12] 96 % of control

OC(COc1cccc2ccccc12)CN1CCCCC1 (centres undefined)
inactive: dose: 25.0 mg/kg/injection, schedule: Q04DX002 (ip), vehicle: Klucel (hydroxypropylcellulose) (HPC) 106 % of control | dose: 50.0 mg/kg/injection, schedule: Q04DX002 (ip), vehicle: Klucel (hydroxypropylcellulose) (HPC) 98 % of control | [13] 92 % of control

Cc1ccc(COC(=O)c2ccccc2)cc1
inactive: [10] 101 % of control | [3] 103 % of control | [14] 98 % of control | [11] 97 % of control | dose: 400.0 mg/kg/injection, schedule: Q01DX009 (ip), vehicle: Klucel (hydroxypropylcellulose) (HPC) 95 % of control | [12] 97 % of control

CC(=O)OC1=CCCCC1c1ccccc1 (centres undefined)
inactive: [4] 103 % of control | [5] 98 % of control | [6] 111 % of control | [7] 98 % of control | [8] 103 % of control | [9] 109 % of control

O=C(c1ccc(Br)cc1)C1SC2(C(=O)c3ccc(Br)cc3)SC(C(=O)c3ccc(Br)cc3)C(C(=O)c3ccc(Br)cc3)SC2(C(=O)c2ccc(Br)cc2)SC1C(=O)c1ccc(Br)cc1 (centres undefined)
inactive: dose: 75.0 mg/kg/injection, schedule: Q01DX001 (ip), vehicle: saline 100 % of control | dose: 150.0 mg/kg/injection, schedule: Q01DX001 (ip), vehicle: saline 94 % of control | dose: 300.0 mg/kg/injection, schedule: Q01DX001 (ip), vehicle: saline 94 % of control

CCCCCCCCCCCCNC(=O)C[n+]1ccc(C(N)=O)cc1
inactive: [15] 94 % of control

CSc1n[nH]c(N)n1
inactive: [4] 92 % of control | [6] 92 % of control | [8] 92 % of control

O=C(NO)c1ccc(C(=O)NO)c(Br)c1
inactive: [16] 103 % of control | [15] 107 % of control | [17] 112 % of control | [18] 107 % of control | [19] 108 % of control | [20] 105 % of control

O=[N+]([O-])c1ccc2c(c1)C(Br)c1ccccc1-2 (centres undefined)
inactive: [10] 89 % of control | [3] 95 % of control | [14] 94 % of control | [11] 92 % of control | [12] 94 % of control

CC(C)C(N)C(=O)NCC(=O)NCC(=O)O (stereo not drawn) (H-[ξV]-Gly-Gly-OH)
inactive: [16] 98 % of control | [15] 102 % of control | [17] 96 % of control | [18] 94 % of control | [19] 98 % of control | [20] 100 % of control

CCOC(=O)n1ccn2cncc2c1=O
inactive: [4] 86 % of control | [5] 95 % of control | [7] 101 % of control | [9] 95 % of control

C#CC(O)c1ccccc1 (centres undefined)
inactive: dose: 12.5 mg/kg/injection, schedule: Q04DX003 (ip), vehicle: Klucel (hydroxypropylcellulose) (HPC) 94 % of control | [1] 99 % of control | [2] 101 % of control

Oc1ccccc1C=Nc1ccccc1S.[Cu+2]
inactive: dose: 100.0 mg/kg/injection, schedule: Q01DX001 (ip), vehicle: other 97 % of control | dose: 200.0 mg/kg/injection, schedule: Q01DX001 (ip), vehicle: other 94 % of control | dose: 400.0 mg/kg/injection, schedule: Q01DX001 (ip), vehicle: other 96 % of control

Cc1nonc1C(N)=O
inactive: [13] 109 % of control | dose: 200.0 mg/kg/injection, schedule: Q04DX002 (ip), vehicle: Klucel (hydroxypropylcellulose) (HPC) 102 % of control | dose: 400.0 mg/kg/injection, schedule: Q04DX002 (ip), vehicle: Klucel (hydroxypropylcellulose) (HPC) 95 % of control
